The values below come from publication PMC7413074 (Journal of pharmacy & pharmaceutical sciences : a …, 2019).

SMILES strings stand for the structures. Read-outs that look alike come from different tables or passages of the source.

A short description of series [1]: in vitro. To be noted: CD1, mouse, plasma.
The subject of series [2] is medulloblastoma/primitive neuroectodermal tumor (cell line JRMB-6). The following applies: single agent, 130 mg/kg IP daily for five consecutive days; cited from earlier work.
For series [3] the following is noted: female, CD1-nude, mouse, in vivo.
Series [4] in a line: in vivo. To be noted: female, CD1-nude, mouse, ip, 130 mg/kg.
For series [5] the following is noted: CD1-nude, mouse.
For series [6] the following is noted: humans; cited from earlier work.
Series [7] can be described thus: in vivo. To be noted: CD1-nude, mouse, Kp,uu (unbound ECF to plasma partition coefficient), mean (SD).

As usually defined, the fraction unbound is free concentration divided by total concentration. By AUC is commonly meant concentration integrated over time. A high value points to high exposure.

As for `O=P1(N(CCCl)CCCl)NCCCO1` (stereo not drawn) [cyclophosphamide], the fraction unbound in series [1] came to 0.26. Further, in series [2], the Response rate is listed as 85% and the “Survival versus saline controls” value was “statistically improved survival”. Moreover, in series [3], the “Central clearance CL, estimate (RSE%)” value is given as 4.4 (3.7) L/h/kg; the “Central volume V, estimate (RSE%)” value is reported as 0.65 (5.0) L/kg; the “Inter-individual variability, central clearance η-CL, estimate (RSE%)” value is 0.11 (17); the “Peripheral clearance Q, estimate (RSE%)” value is 0.18 (4.3) L/h/kg. Also, in series [3], the “Peripheral volume Vp, estimate (RSE%)” value is 0.062 (2.6) L/kg and the “Proportional residual variability εprop, estimate (RSE%)” value is 0.24 (11). Besides, in series [3] (ip, 130 mg/kg), the “Mean observed maximum concentrations” value turned out to be 352.9 µM. The compound further displayed an exposure (AUC) in series [4] of 113 µM·h. Moreover, in series [5] (in vivo), the “AUCECF,0-5h (unbound brain ECF exposure), mean (SD)” value is given as 6.3 (1.3) μM·h; the “AUCECF,0-5h (unbound tumor ECF exposure), mean (SD)” value was 4.0 (1.4) μM·h; the “AUCECF,0-5h (unbound tumor or brain ECF exposure), mean (SD)” value is listed as 5.2 (1.8) μM·h; the “Influx clearance CLin, estimate (RSE%)” value is 4.3·10^−4 (16) L/h/kg. Besides, in series [5] (in vivo), the “Inter-individual variability, influx clearance η-CLin, estimate (RSE%)” value is reported as 0.31 (51) and the “Proportional residual variability εprop, estimate (RSE%)” value is reported as 0.45 (12). For the same compound, in series [5] (not told), the “Efflux clearance CLef, estimate (RSE%)” value was 2.4·10^−3 (7.0) L/h/kg and the “Inter-individual variability, efflux clearance η-CLef, estimate (RSE%)” value is given as 0.23 (22). Moreover, in series [6], the “FU (fraction unbound)” value is given as 7-17%. In series [7], this compound returned a Kp uu of 0.22.
